Test results from ChEMBL document CHEMBL5241082, “Discovery and Characterization of Benzimidazole Derivative XY123 as a Potent, Selective, and Orally Available RORγ Inverse Agonist” (J Med Chem, 2021).

Columns and labels:
[1] = in vitro; details: human, liver microsomes
[2] = in vivo; details: Sprague-Dawley, rat, iv, 5 mg/kg
[3] = in vitro; details: rat, liver microsomes

half-life at 1 µM [1] [min] | clearance at 24 h [2] [mL/min/kg] | half-life at 1 µM [3] [min] | SMILES
3.03 | 3 | 22.4 | CCS(=O)(=O)c1ccc(CC(=O)Nc2ccc(-c3nc4ccc(C(F)(F)F)cc4n3[C@H](C)c3ccc(F)cc3)cc2)cc1
> 120 | – | > 120 | O=C(c1ccc(F)cc1)C1CCN(CCn2c(=O)[nH]c3ccccc3c2=O)CC1 [KETANSERIN]
> 120 | 3.33 | > 120 | CCS(=O)(=O)c1ccc(CC(=O)Nc2ccc(-c3nc4ccc(C(F)(F)F)cc4n3[C@@H](C)c3ccc(F)cc3)cc2)cc1
